Tests used:
MDSCs = test: Inhibition of MDSC chemotaxis (Transwell, Hepa1-6 tumor-conditioned medium); format: cell-based, mice; conditions: 12 h treatment, 24 h Transwell
Procedure: Hepa1-6 mouse hepatocellular carcinoma cells were uniformly seeded into 6-well plates. After cells reached confluence, supernatant was aspirated, and 1-1.5 mL fresh medium was added to each well. Following 24 h culture, supernatant was collected, centrifuged at 1600 rpm for 5 min, aspirated, and filtered through a 0.22 µm membrane to obtain tumor-conditioned medium for subsequent use. Euthanize mice by cervical dislocation and immerse in 75% ethanol solution for 5 min. Under sterile conditions, remove the tibia, cut both ends of the bone, and aspirate the bone marrow into a 1 mL syringe. Repeat flushing into a 15 mL centrifuge tube. Centrifuge at 1600 rpm for 5 min to collect bone marrow cells. Wash twice with 1×PBS. Resuspend cells in complete RPMI 1640 medium containing cytokines GM-CSF (10 ng/mL) and IL-4 (10 ng/mL) to stimulate differentiation into MDSCs. Count cells, adjust density to 1×10^6 cells/mL, and uniformly seed into 24-well plates at 300 µL per well. […] Centrifuge at 1600 rpm for 5 min, remove supernatant, resuspend cells in 300 µL fresh medium, and place into Transwell chambers. Add 600 µL normal medium (control group) or tumor-conditioned medium (model group) to the lower chamber. Co-culture for 24 h.

MDSCs and T cells = test: T cell proliferation in a co-culture model of MDSCs and T cells (flow cytometry); format: cell-based, mice; conditions: MDSCs treated with 1 µM compound for 12 h, 48 h co-culture with T cells (1:1), compared to the control group
Procedure: Under sterile conditions, the tibia was removed, both ends of the bone were cut, and bone marrow was repeatedly flushed into a 15 mL centrifuge tube using a 1 mL syringe filled with culture medium. Centrifuge at 1600 rpm for 5 min to collect bone marrow cells. […] The spleen cell suspension was then transferred into a 15 mL centrifuge tube. Centrifuge at 1600 rpm for 5 min to collect T cells. Wash twice with 1×PBS. Resuspend the centrifuged T cells in 1 mL PBS and add 1 mL of 10 µM CFDA-SE solution. Incubate at room temperature for 8 min. […] After drug administration, collect MDSC cells into centrifuge tubes. Centrifuge at 1600 rpm for 5 min, remove supernatant, resuspend in 1 mL fresh medium, and plate. Add 1 mL stimulated activated T cells (1:1 ratio) for 48 h co-culture. After incubation, collect cells into centrifuge tubes, wash twice with PBS, and incubate with Fc antibody at room temperature in the dark for 10 min. Add CD3-labeled flow cytometry antibody and incubate at 4 °C in the dark for 30 min. After incubation, wash cells with PBS, resuspend in 300 µL PBS, and analyze by flow cytometry.

Hepa1-6 cells = test: Hepa1-6 mouse hepatocellular carcinoma subcutaneous xenograft model; format: in vivo, C57BL/6 mice; conditions: Hepa1-6, oral 40 µmol/kg/d, 2 weeks
Procedure: Hepa1-6 cells were cultured and expanded in vitro. An appropriate amount of cells in the logarithmic growth phase was resuspended in a mixture of serum-free DMEM medium and Matrigel (1:1). under aseptic conditions to prepare a 2.5×10^6/100 µL cell suspension. A 100 µL aliquot of this suspension was injected subcutaneously into the left forearm axilla of male C57BL/6 mice. […] Daily oral administration was performed for 2 weeks. During the treatment period, mouse body weight and tumor diameter were measured daily. At the end of the experiment, mice were euthanized by cervical dislocation, and tumors were removed for weighing. Tumor volume (TV) was calculated using the formula: TV = 1/2 × a × b^2, where a represents the longest diameter of the tumor and b represents the shortest diameter.

[1] = system: MC903-induced atopic dermatitis (AD); test: MC903-induced ear atopic dermatitis mouse model, oral Compound 20: dermatitis score, ear thickness, serum IgE; conditions: for IgE: serum, AD mice

SMILES: C=C1C(=O)O[C@@H]2[C@@H]3[C@]4(CC[C@@]3(C)O)C[C@]4(C)CC[C@@H]12 [compound 1]
- Suppression Rate (%) (MDSCs; 1 µM): 42.3%
- Suppression Rate (%) (MDSCs; 10 µM): 83.3%

SMILES: CN(C)C[C@@H]1C(=O)O[C@H]2[C@H]1CC[C@@]1(C)C[C@]13CC[C@@](C)(O)[C@H]23 [compound 20]
- T-cell proliferation rate (%) (MDSCs and T cells): + (T-cell proliferation rate within the 0-20% range compared to the control group)
- Tumor Inhibition Rate (%) (Hepa1-6 cells): 96.78%
- Tumor weight (Hepa1-6 cells): 0.03 ± 0.02 g
- atopic dermatitis score ([1]; oral 0.1 mg/kg, Day 1): 0.00±0.00
- ear thickness ([1]; oral 0.1 mg/kg, Day 1): 0.20±0.00 mm
- atopic dermatitis score ([1]; oral 0.1 mg/kg, Day 3): 0.67±0.21
- ear thickness ([1]; oral 0.1 mg/kg, Day 3): 0.24±0.00 mm
- atopic dermatitis score ([1]; oral 0.1 mg/kg, Day 5): 1.33±0.21
- ear thickness ([1]; oral 0.1 mg/kg, Day 5): 0.26±0.00 mm
- atopic dermatitis score ([1]; oral 0.1 mg/kg, Day 7): 2.17±0.17
- ear thickness ([1]; oral 0.1 mg/kg, Day 7): 0.26±0.00 mm
- atopic dermatitis score ([1]; oral 0.1 mg/kg, Day 8): 2.50±0.22
- ear thickness ([1]; oral 0.1 mg/kg, Day 8): 0.27±0.00 mm
- atopic dermatitis score ([1]; oral 0.1 mg/kg, Day 9): 3.00±0.26
- ear thickness ([1]; oral 0.1 mg/kg, Day 9): 0.28±0.00 mm
- atopic dermatitis score ([1]; oral 0.1 mg/kg, Day 10): 3.50±0.22
- ear thickness ([1]; oral 0.1 mg/kg, Day 10): 0.29±0.00 mm
- atopic dermatitis score ([1]; oral 0.1 mg/kg, Day 11): 3.67±0.21
- ear thickness ([1]; oral 0.1 mg/kg, Day 11): 0.30±0.00 mm
- atopic dermatitis score ([1]; oral 0.1 mg/kg, Day 12): 3.33±0.21
- ear thickness ([1]; oral 0.1 mg/kg, Day 12): 0.30±0.00 mm
- atopic dermatitis score ([1]; oral 0.1 mg/kg, Day 13): 3.00±0.00
- ear thickness ([1]; oral 0.1 mg/kg, Day 13): 0.30±0.00 mm
- atopic dermatitis score ([1]; oral 0.1 mg/kg, Day 14): 2.67±0.21
- ear thickness ([1]; oral 0.1 mg/kg, Day 14): 0.29±0.00 mm
- atopic dermatitis score ([1]; oral 1 mg/kg, Day 1): 0.00±0.00
- ear thickness ([1]; oral 1 mg/kg, Day 1): 0.20±0.00 mm
- atopic dermatitis score ([1]; oral 1 mg/kg, Day 3): 0.50±0.22
- ear thickness ([1]; oral 1 mg/kg, Day 3): 0.23±0.00 mm
- atopic dermatitis score ([1]; oral 1 mg/kg, Day 5): 1.17±0.17
- ear thickness ([1]; oral 1 mg/kg, Day 5): 0.24±0.00 mm
- atopic dermatitis score ([1]; oral 1 mg/kg, Day 7): 1.67±0.21
- ear thickness ([1]; oral 1 mg/kg, Day 7): 0.26±0.00 mm
- atopic dermatitis score ([1]; oral 1 mg/kg, Day 8): 2.17±0.17
- ear thickness ([1]; oral 1 mg/kg, Day 8): 0.27±0.00 mm
- atopic dermatitis score ([1]; oral 1 mg/kg, Day 9): 2.83±0.17
- ear thickness ([1]; oral 1 mg/kg, Day 9): 0.28±0.00 mm
- atopic dermatitis score ([1]; oral 1 mg/kg, Day 10): 3.00±0.00
- ear thickness ([1]; oral 1 mg/kg, Day 10): 0.28±0.00 mm
- atopic dermatitis score ([1]; oral 1 mg/kg, Day 11): 3.17±0.17
- ear thickness ([1]; oral 1 mg/kg, Day 11): 0.28±0.00 mm
- atopic dermatitis score ([1]; oral 1 mg/kg, Day 12): 2.67±0.21
- ear thickness ([1]; oral 1 mg/kg, Day 12): 0.27±0.00 mm
- atopic dermatitis score ([1]; oral 1 mg/kg, Day 13): 2.50±0.22
- ear thickness ([1]; oral 1 mg/kg, Day 13): 0.27±0.00 mm
- atopic dermatitis score ([1]; oral 1 mg/kg, Day 14): 2.00±0.00
- ear thickness ([1]; oral 1 mg/kg, Day 14): 0.27±0.00 mm
- atopic dermatitis score ([1]; oral 10 mg/kg, Day 1): 0.00±0.00
- ear thickness ([1]; oral 10 mg/kg, Day 1): 0.20±0.00 mm
- atopic dermatitis score ([1]; oral 10 mg/kg, Day 3): 0.67±0.21
- ear thickness ([1]; oral 10 mg/kg, Day 3): 0.23±0.00 mm
- atopic dermatitis score ([1]; oral 10 mg/kg, Day 5): 1.00±0.00
- ear thickness ([1]; oral 10 mg/kg, Day 5): 0.25±0.00 mm
- atopic dermatitis score ([1]; oral 10 mg/kg, Day 7): 2.00±0.00
- ear thickness ([1]; oral 10 mg/kg, Day 7): 0.26±0.00 mm
- atopic dermatitis score ([1]; oral 10 mg/kg, Day 8): 2.50±0.22
- ear thickness ([1]; oral 10 mg/kg, Day 8): 0.27±0.00 mm
- atopic dermatitis score ([1]; oral 10 mg/kg, Day 9): 2.83±0.17
- ear thickness ([1]; oral 10 mg/kg, Day 9): 0.27±0.00 mm
- atopic dermatitis score ([1]; oral 10 mg/kg, Day 10): 2.67±0.42
- ear thickness ([1]; oral 10 mg/kg, Day 10): 0.27±0.00 mm
- atopic dermatitis score ([1]; oral 10 mg/kg, Day 11): 3.00±0.26
- ear thickness ([1]; oral 10 mg/kg, Day 11): 0.27±0.00 mm
- atopic dermatitis score ([1]; oral 10 mg/kg, Day 12): 2.33±0.33
- ear thickness ([1]; oral 10 mg/kg, Day 12): 0.25±0.00 mm
- atopic dermatitis score ([1]; oral 10 mg/kg, Day 13): 1.67±0.21
- ear thickness ([1]; oral 10 mg/kg, Day 13): 0.25±0.00 mm
- atopic dermatitis score ([1]; oral 10 mg/kg, Day 14): 1.50±0.22
- ear thickness ([1]; oral 10 mg/kg, Day 14): 0.24±0.01 mm
- IgE ([1]; oral 0.1 mg/kg): 239.26 ± 48.93 ng/mL
- IgE ([1]; oral 1 mg/kg): 167.90 ± 21.03 ng/mL
- IgE ([1]; oral 10 mg/kg): 145.68 ± 23.19 ng/mL

— patent EP4813381A1, “PHARMACEUTICAL USE OF GUAIANE SESQUITERPENE DERIVATIVE” (Nanjing University Of Chinese Medicine, priority 2023, dated 2025)
